pEC50, pIC50, pKd: −log10 of the molar value. In brackets after ≈: the same amount, converted by molar mass. Values belong to the molecule of their own block, whether it stands above or below them.
What was measured:
CCRF-CEM = assay: Cytotoxicity against human CCRF-CEM cells; type: functional, cell-based
[1] = Apparent permeability across basolateral to apical side in human Caco-2 cells incubated for 2 hrs by HPLC-MS analysis; type: ADME, cell-based
SK-OV-3 = assay: Cytotoxicity against human SK-OV-3 cells incubated for 96 hrs by PrestoBlue reagent based cell viability assay; type: functional; conditions: SK-OV-3, 96 h
BT-474 = assay: Antiproliferative activity against human BT-474 cells assessed as inhibition of cell growth incubated for 4 days by WST-8 assay; type: functional, cell-based; conditions: BT-474, 96 h
Tubulin = assay: Displacement of fluorescent Maytansine probe from tubulin (unknown origin) assessed as dissociation constant by competitive binding based fluorescence anisotropy; type: protein-complex assay, Homo sapiens
A2780 [2] = assay: Cytotoxicity against human A2780 cells assessed as inhibition of cell growth incubated for 72 hrs by MTT assay; type: functional, cell-based; conditions: A2780, 72 h
KB 3-1 = assay: Cytotoxicity against human KB 3-1 cells assessed as inhibition of cell growth incubated for 3 days by SRB assay; type: functional, cell-based; conditions: KB 3-1, 72 h
HepG2 = assay: Cytotoxicity against human HepG2 cells assessed as inhibition of cell growth incubated for 72 hrs by fluorometric assay; type: functional, cell-based; conditions: HepG2, 72 h
[3] = Cytotoxicity against human L540cy cells assessed as reduction in cell growth incubated for 4 days by CellTiter-Glo luminescent assay; type: functional, cell-based; conditions: 96 h
A2780 [4] = assay: Cytotoxicity against human A2780 cells; type: functional, cell-based
HT-29 [5] = assay: Antiproliferative activity against human HT-29 cells assessed as inhibition of cell growth incubated for 72 hrs by coulter counter method; type: functional, cell-based; conditions: HT-29, 72 h
HT-29 [6] = assay: Antiproliferative activity against human HT-29 cells assessed as inhibition of cell growth incubated for 48 to 96 hrs by MTT assay; type: functional, cell-based
K562 = assay: Antiproliferative activity against human K562 cells assessed as inhibition of cell growth incubated for 5 days by WST-1 assay; type: functional, cell-based; conditions: K562, 120 h
[7] = Inhibition of RNA polymerase II phosphorylation in human HeLa cells by Western blot analysis; type: cell-based
SK-BR-3 = assay: Cytotoxicity against human SK-BR-3 cells incubated for 4 to 7 days hrs by CellTiter-Glo luminescent assay; type: functional, cell-based

Compound: COc1ccc(C[C@H]2NC(=O)/C=C/C[C@@H]([C@H](C)[C@@H](O)[C@@H](Cl)c3ccccc3)OC(=O)[C@H](CC(C)C)OC(=O)C(C)(C)CNC2=O)cc1Cl
pIC50 (CCRF-CEM): 10.57

Compound: CC[C@H](C)[C@@H]([C@@H](CC(=O)N1CCC[C@H]1[C@H](OC)[C@@H](C)C(=O)N[C@@H](Cc1ccccc1)c1nnc(-c2ccccc2)o1)OC)N(C)C(=O)[C@@H](NC(=O)[C@H](C(C)C)N(C)CCCC(=O)O)C(C)C
Papp B→A at 2 h [1]: 2.9 ×10⁻⁶ cm/s

Compound: CC[C@H](C)[C@@H]([C@@H](CC(=O)N1CCC[C@H]1[C@H](OC)[C@@H](C)C(=O)N[C@@H](Cc1ccccc1)c1nccs1)OC)N(C)C(=O)[C@@H](NC(=O)[C@H](C(C)C)N(C)CC(O)C(O)C(O)C(O)CN=[N+]=[N-])C(C)C (some centres undefined)
pIC50 (SK-OV-3): > 9.00

Compound: CC[C@H](C)[C@@H]([C@@H](CC(=O)N1C[C@@H](NC)C[C@H]1[C@H](OC)[C@@H](C)C(=O)NCCc1c(F)cccc1F)OC)N(C)C(=O)[C@@H](NC(=O)[C@H](C(C)C)N(C)C)C(C)C
pIC50 (BT-474): > 9.40

Compound: CC[C@H](C)[C@@H]([C@@H](CC(=O)N1C[C@@H](N)C[C@H]1[C@H](OC)[C@@H](C)C(=O)NCCc1c(F)cccc1F)OC)N(C)C(=O)[C@@H](NC(=O)[C@H](C(C)C)N(C)C)C(C)C
pIC50 (BT-474): > 9.40

Compound: COc1cc2cc(c1Cl)N(C)C(=O)C[C@H](OC(C)=O)[C@@]1(C)O[C@H]1[C@H](C)[C@@H]1C[C@@](O)(NC(=O)O1)[C@H](OC)/C=C/C=C(\C)C2
pKd (Tubulin): 7.96
pIC50 (A2780 [2]): 9.60

Compound: CN[C@H](C(=O)N[C@H](C(=O)N(C)[C@H](/C=C(\C)C(=O)N1CCC[C@H]1[C@H](OC)[C@@H](C)C(=O)N[C@@H](Cc1ccccc1)c1nccs1)C(C)C)C(C)(C)C)C(C)(C)c1ccccc1
pIC50 (KB 3-1): 9.12

Compound: CC[C@H](C)[C@@H]([C@@H](CC(=O)N1C[C@@H](NC(=O)OC(C)(C)C)C[C@H]1[C@H](OC)[C@@H](C)C(=O)NCCc1c(F)cccc1F)OC)N(C)C(=O)[C@@H](NC(=O)[C@H](C(C)C)N(C)C)C(C)C
pIC50 (HepG2): 9.89

Compound: Nc1cccc(C(=O)N2CCC(CCCCNC(=O)/C=C/c3cccnc3)CC2)c1
pEC50 [3]: 8.20

Compound: CC(=O)N[C@@H](C)c1ccc(NC(=O)[C@H]2C[C@@H]2c2cccnc2)cc1
pIC50 (A2780 [4]): 8.30

Compound: CC[C@H](C)[C@H](NC(=O)[C@H]1CCCCN1C)C(=O)N(CC1CC1)[C@H](C[C@@H](OC(C)=O)c1nc(C(=O)N[C@@H](Cc2ccccc2)C[C@H](C)C(=O)O)cs1)C(C)C
pIC50 (HT-29 [5]): 10.26

Compound: CC[C@H](C)[C@@H]([C@@H](CC(=O)N1CCC[C@H]1[C@H](OC)[C@@H](C)C(=O)N[C@H](Cc1ccccc1)c1nnc(-c2ccccc2)o1)OC)N(C)C(=O)[C@@H](NC(=O)[C@H](C(C)C)N(C)CCCC(=O)O)C(C)C
Papp B→A at 2 h [1]: 4.5 ×10⁻⁶ cm/s
pIC50 (HT-29 [6]): 10.00

Compound: CC[C@H](C)[C@H](NC(=O)[C@H]1CCCCN1C)C(=O)N(COC(=O)CC(C)C)[C@H](C[C@@H](OC(C)=O)c1nc(C(=O)N[C@H](Cc2ccccc2)C[C@H](C)C(=O)O)cs1)C(C)C
IC50 (K562): 0.02 ng/mL (≈ 0.0242 nM)

pKd (Tubulin): 7.70
Compound: C#CCCCCC(=O)O[C@H]1CC(=O)N(C)c2cc(cc(OC)c2Cl)C/C(C)=C/C=C/[C@@H](OC)[C@@]2(O)C[C@H](OC(=O)N2)[C@@H](C)[C@@H]2O[C@]12C
pIC50 (A2780 [2]): 10.48

Compound: CC[C@H](C)[C@@H]1NC(=O)CNC(=O)[C@H]2CC(=O)[C@H]([C@@H](C)[C@@H](O)CO)NC(=O)[C@@H]3C[C@@H](C#N)CN3C(=O)[C@H](CC(N)=O)NC(=O)[C@H](CSc3[nH]c4cc(O)ccc4c3C2)NC(=O)CNC1=O
pIC50 [7]: 6.32

Compound: CCCO[C@H](C[C@H](C(C)C)N(C)C(=O)[C@@H](NC(=O)[C@H]1CCCCN1C)C(C)C)c1nc(C(=O)N[C@@H](Cc2ccc(N)cc2)C[C@H](C)C(=O)O)c(CCOCc2ccccc2)s1
pIC50 (SK-BR-3): 10.40
